Laboratory results published in patent publication US9772337B2, “Compositions and methods for functional gylcomics” (Emory University, priority 2010, dated 2017).

Test system: anti-GD1a antibody
Experiment: BBG GSL-AOAB shotgun microarray binding assay with anti-GD1a antibody
Settings: fractions printed at 10 μM on NHS-slides

binding of anti-GD1a antibody to BBG GSL-AOAB fractions: primarily bound
Substance: Neu5Acα2-3Galβ1-3GalNAcβ1-4(Neu5Acα2-3)Galβ1-4Glcβ1-R [GD1a-AOAB]
